Test results: the supplement of paper PMC10307832

How the values were obtained:
Assay in all cases: relative viability (nuclei count vs DMSO), 5 days (fraction); higher = more cells survive
[1] = compound: C/C(=N\NC(=S)N1CCC1)/C2=CC=CC=N2
In short: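 Viability here means nuclei in treated wells divided by nuclei in vehicle wells, reported as the median across plates. Only plates with control CV below 25% and at least one doubling passed. Lung cancer cell lines in 1536-well plates were exposed to five √10-spaced library-drug doses for 5 days and counted from 4× Hoechst images in MetaXpress.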

[2] = compound: C/C(=N\NC(=S)N1CCC1)/C2=CC=CC=N2 + Cc1cc(Nc2cc(N3CCN(C)CC3)nc(Sc3ccc(NC(=O)C4CC4)cc3)n2)n[nH]1 [Tozasertib] (partner 0.1 µM)
In short: (§1)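 One day after seeding in 1536-well plates, lung cancer cell lines were dosed by pin tool. Dosing was either single-drug or a fixed anchor-drug dose plus five library-drug doses (not always all listed) in √10 steps. After 5 days, nuclei were stained in one fix-and-stain step and counted on 4× images, and relative viability is the nuclei count of treated wells over that of vehicle wells, given as the median of duplicate plates.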

[3] = compound: C/C(=N\NC(=S)N1CCC1)/C2=CC=CC=N2 + CC(=O)Nc1cccc(-n2c(=O)n(C3CC3)c(=O)c3c(Nc4ccc(I)cc4F)n(C)c(=O)c(C)c32)c1 [Trametinib] (partner 0.02 µM)
In short: as §1

[4] = compound: C/C(=N\NC(=S)N1CCC1)/C2=CC=CC=N2 + NC(=O)Nc1cc(-c2cccc(F)c2)sc1C(=O)N[C@H]1CCCNC1 [AZD7762] (partner 0.2 µM)
In short: as §1

| Cell Line | relative viability ([1]; 0.05 µM) | relative viability ([1]; 0.1581 µM) | relative viability ([1]; 0.5 µM) | relative viability ([1]; 1.581 µM) | relative viability ([1]; 5 µM) | relative viability ([2]; first compound 0.05 µM) | relative viability ([2]; first compound 0.1581 µM) | relative viability ([2]; first compound 0.5 µM) | relative viability ([2]; first compound 1.581 µM) | relative viability ([2]; first compound 5 µM) | relative viability ([3]; first compound 0.05 µM) | relative viability ([3]; first compound 0.1581 µM) | relative viability ([3]; first compound 0.5 µM) | relative viability ([3]; first compound 1.581 µM) | relative viability ([3]; first compound 5 µM) | relative viability ([4]; first compound 0.05 µM) | relative viability ([4]; first compound 0.1581 µM) | relative viability ([4]; first compound 0.5 µM) | relative viability ([4]; first compound 1.581 µM) | relative viability ([4]; first compound 5 µM) |
| --- | --- | --- | --- | --- | --- | --- | --- | --- | --- | --- | --- | --- | --- | --- | --- | --- | --- | --- | --- | --- |
| NCI-H1755 | 0.353 | 0.332 | 0.321 | 0.303 | 0.282 | 0.465 | 0.305 | 0.213 | 0.278 | 0.258 | 0.551 | 0.734 | 0.254 | 0.284 | 0.298 | 0.357 | 0.262 | 0.253 | 0.256 | 0.292 |
| NCI-H2087 | 0.16 | 0.218 | 0.19 | 0.165 | 0.138 | 0.0992 | 0.0962 | 0.114 | 0.0938 | 0.0874 | 0.104 | 0.123 | 0.11 | 0.108 | 0.0815 | 0.193 | 0.16 | 0.249 | 0.118 | 0.15 |
| NCI-H2228 | 0.192 | 0.217 | 0.21 | 0.118 | 0.187 | 0.0977 | 0.114 | 0.126 |  | 0.116 | 0.124 | 0.151 | 0.137 | 0.0911 | 0.135 |  |  |  |  |  |
| NCI-H727 | 0.25 | 0.235 | 0.245 | 0.27 | 0.272 | 0.28 | 0.311 | 0.257 | 0.159 | 0.261 | 0.361 | 0.33 | 0.358 | 0.367 | 0.318 | 0.265 | 0.249 | 0.311 | 0.228 | 0.312 |
| NCI-H650 | 0.22 | 0.232 | 0.222 | 0.196 | 0.175 | 0.184 | 0.189 | 0.185 | 0.158 | 0.16 | 0.17 | 0.207 | 0.204 | 0.169 | 0.151 | 0.225 | 0.209 | 0.199 | 0.223 | 0.143 |
| NCI-H520 | 0.164 | 0.17 | 0.141 | 0.16 | 0.172 | 0.191 | 0.241 | 0.197 | 0.175 | 0.269 | 0.101 | 0.129 | 0.118 | 0.123 | 0.159 |  |  |  |  |  |
| EBC-1 | 0.169 | 0.214 | 0.169 | 0.127 | 0.154 |  |  |  |  |  |  |  |  |  |  |  |  |  |  |  |
| NCI-H661 | 0.288 | 0.32 | 0.317 | 0.255 | 0.262 | 0.239 | 0.261 | 0.23 | 0.235 | 0.248 | 0.208 | 0.263 | 0.26 | 0.224 | 0.213 |  |  |  |  |  |
| NCI-H1299 | 0.1 | 0.12 | 0.186 | 0.185 | 0.145 |  |  |  |  |  |  |  |  |  |  |  |  |  |  |  |
| LK-2 | 0.172 | 0.182 | 0.18 | 0.14 | 0.176 | 0.166 | 0.139 | 0.157 | 0.147 | 0.149 | 0.174 | 0.187 | 0.184 | 0.146 | 0.159 | 0.0945 | 0.0875 | 0.049 | 0.086 | 0.0796 |
| SK-LU-1 | 0.24 | 0.233 | 0.25 | 0.168 | 0.208 | 0.141 | 0.124 | 0.174 | 0.0952 | 0.136 | 0.294 | 0.278 | 0.254 | 0.191 | 0.258 |  |  |  |  |  |
| COR-L23 | 0.148 | 0.133 | 0.138 | 0.113 | 0.102 | 0.101 | 0.0974 | 0.0768 | 0.0695 | 0.101 | 0.111 | 0.133 | 0.124 | 0.107 | 0.114 |  |  |  |  |  |
| NCI-H1650 | 0.18 | 0.26 | 0.183 | 0.173 | 0.199 | 0.121 | 0.187 | 0.126 | 0.16 | 0.194 | 0.131 | 0.176 | 0.143 | 0.177 | 0.146 |  |  |  |  |  |
| IA-LM | 0.0692 | 0.0771 | 0.0669 | 0.0644 | 0.0517 |  |  |  |  |  |  |  |  |  |  |  |  |  |  |  |
| NCI-H2009 | 0.122 | 0.17 | 0.166 | 0.156 | 0.138 | 0.103 | 0.148 | 0.143 | 0.183 | 0.149 | 0.108 | 0.133 | 0.102 | 0.0932 | 0.111 |  |  |  |  |  |
| NCI-H1563 | 0.62 | 0.6 | 0.504 | 0.538 | 0.522 |  |  |  |  |  |  |  |  |  |  |  |  |  |  |  |
| SK-MES-1 | 0.197 | 0.231 | 0.192 | 0.171 | 0.19 | 0.22 | 0.188 | 0.183 | 0.158 | 0.147 | 0.277 | 0.236 | 0.245 | 0.213 | 0.246 |  |  |  |  |  |
| UMC-11 | 0.262 | 0.241 | 0.23 | 0.193 | 0.175 | 0.196 | 0.177 | 0.196 | 0.192 | 0.185 | 0.164 | 0.164 | 0.159 | 0.113 | 0.129 |  |  |  |  |  |
| ABC-1 | 0.38 | 0.303 | 0.245 | 0.259 | 0.361 | 0.193 | 0.146 | 0.152 | 0.168 | 0.163 |  |  |  |  |  | 0.282 | 0.342 | 0.341 | 0.288 | 0.305 |
| SW 1573 | 0.119 | 0.115 | 0.143 | 0.102 | 0.0766 | 0.0614 | 0.0887 | 0.0999 | 0.0752 | 0.0626 | 0.0975 | 0.0992 | 0.119 | 0.0672 | 0.0635 |  |  |  |  |  |
| NCI-H1792 | 0.362 | 0.234 | 0.227 | 0.184 | 0.134 |  |  |  |  |  | 0.415 | 0.101 | 0.0783 | 0.0869 | 0.0954 | 0.107 | 0.0965 | 0.0559 | 0.0274 | 0.0333 |
| NCI-H2023 | 0.0831 | 0.0809 | 0.0814 | 0.0675 | 0.0747 | 0.063 | 0.0672 | 0.0602 | 0.0657 | 0.0603 | 0.0918 | 0.0896 | 0.0543 | 0.069 | 0.0829 |  |  |  |  |  |
| COR-L 105 | 0.287 | 0.364 | 0.342 | 0.245 | 0.292 | 0.205 | 0.245 | 0.229 | 0.231 | 0.22 | 0.376 | 0.462 | 0.377 | 0.343 | 0.339 |  |  |  |  |  |
